Experimental data reported in paper PMC12693419, “Design, Synthesis, Biological Evaluation, and In Silico Studies of Novel Multitarget Cinnamic Acid Hybrids” (Molecules, 2025).

How the values were obtained:
[1] = In vitro inhibition of linoleic acid lipid peroxidation (AAPH); details: 100 μM; anti-lipid peroxidation
Method in brief: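 Thermal decomposition of AAPH generated alkylperoxy radicals that oxidized sodium linoleate in aqueous dispersion at 37 °C. Formation of conjugated diene hydroperoxides was followed by absorbance at 234 nm, with Trolox as reference.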

[2] = target: T1, soybean lipoxygenase isoenzyme-1 (SLOX-1) (Glycine max, UniProt P08170); assay: In vitro inhibition of soybean lipoxygenase; assay type: biochemical; details: pH 9.0, read-out: LOX Inh. IC50
T1 construct: purchased Merck and Sigma-Aldrich
T1 sequence (P08170 1-839): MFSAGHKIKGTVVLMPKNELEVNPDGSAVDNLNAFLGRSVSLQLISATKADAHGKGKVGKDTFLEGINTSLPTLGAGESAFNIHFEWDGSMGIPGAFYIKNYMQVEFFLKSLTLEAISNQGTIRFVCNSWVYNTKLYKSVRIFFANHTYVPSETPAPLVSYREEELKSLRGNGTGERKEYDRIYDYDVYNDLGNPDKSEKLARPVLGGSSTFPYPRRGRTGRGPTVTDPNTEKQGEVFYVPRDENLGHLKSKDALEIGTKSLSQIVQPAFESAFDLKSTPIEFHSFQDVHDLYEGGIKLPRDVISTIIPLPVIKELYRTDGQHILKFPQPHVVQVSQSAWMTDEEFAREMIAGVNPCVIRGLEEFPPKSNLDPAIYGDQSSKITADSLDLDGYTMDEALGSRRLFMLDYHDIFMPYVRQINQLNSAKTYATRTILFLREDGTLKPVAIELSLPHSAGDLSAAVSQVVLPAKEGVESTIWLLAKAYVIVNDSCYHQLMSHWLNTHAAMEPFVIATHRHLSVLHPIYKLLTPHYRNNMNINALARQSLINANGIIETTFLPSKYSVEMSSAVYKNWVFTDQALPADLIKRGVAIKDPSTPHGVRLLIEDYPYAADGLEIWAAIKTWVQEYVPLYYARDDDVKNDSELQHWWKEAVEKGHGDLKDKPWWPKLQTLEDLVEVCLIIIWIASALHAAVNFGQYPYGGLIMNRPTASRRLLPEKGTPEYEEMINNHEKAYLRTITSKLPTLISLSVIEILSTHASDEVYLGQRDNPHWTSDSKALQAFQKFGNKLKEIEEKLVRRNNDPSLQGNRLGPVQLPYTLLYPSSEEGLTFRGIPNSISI
Experimental: In vitro anti-LOX activities were evaluated using soybean lipoxygenase isoenzyme-1 (SLOX-1), a commonly used model for mammalian LOXs.
An in vitro study was conducted following a previously reported method. The tested compounds were dissolved in DMSO (100 µM) and incubated at room temperature with 0.1 mL of sodium linoleate as the substrate and 0.2 mL of soybean lipoxygenase solution in Tris-HCl buffer (pH 9.0).

bovine serum albumin = target: T2, bovine serum albumin (Bos taurus, UniProt P02769); assay: In vitro inhibition of albumin denaturation; details: heat denaturation, 60 °C 10 min
T2 construct: bovine serum albumin solution (fraction V); purchased Merck and Sigma-Aldrich; host or cells: bovine serum (fraction V)
Method in brief: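 Bovine serum albumin (fraction V, 1% w/v in phosphate buffer, pH 7.4) mixed with test compound, held 15 min at 37 °C, then heated 10 min at 60 °C. After cooling, turbidity read as absorbance at 660 nm against a DMSO blank.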

HeLa cells = assay: MTT viability assay; assay type: cell-based; details: Homo sapiens, 48 h
Experimental: (§1) HeLa, MCF-7, U251, U87, MDA-MB-435, and MDA-MB-231 cancer cell lines were maintained in incubators at 37 °C with 5% CO2 in DMEM medium supplemented with 10% (v/v) fetal bovine serum (FBS) and antibiotics/antimycotics. All cell lines used in this study originate from the Laboratory of Biochemistry, Department of Chemistry, Aristotle University of Thessaloniki. They are low-passage, mycoplasma-free cancer cell lines that have been extensively used over the past 25 years in numerous studies across various fields of cancer research, including drug cytotoxicity testing.
(§2) All cell lines tested were seeded in 96-well plates at a concentration of 6 × 10^3 cells per well, except HeLa, which were seeded at 3 × 10^3 cells per well. The day after, cells were exposed to increasing concentrations of the compounds for 48 h. Cell viability was determined using the 3-(4,5-dimethylthiazol-2-yl)-2,5-diphenyltetrazolium bromide (MTT) assay, a colorimetric assessment of cellular metabolic activity as described previously. Absorbance values from treated samples were normalized to those of untreated controls, which were assigned to a 100% viability value.

MCF-7 cells = assay: MTT viability assay; assay type: cell-based; details: Homo sapiens, MCF7, 48 h
Experimental: as §1, §2

ovine COX-2 = target: T3, ovine COX-2 (Ovis aries, UniProt P79208); assay: In vitro inhibition of ovine cyclooxygenase-2
T3 sequence (P79208 17-603): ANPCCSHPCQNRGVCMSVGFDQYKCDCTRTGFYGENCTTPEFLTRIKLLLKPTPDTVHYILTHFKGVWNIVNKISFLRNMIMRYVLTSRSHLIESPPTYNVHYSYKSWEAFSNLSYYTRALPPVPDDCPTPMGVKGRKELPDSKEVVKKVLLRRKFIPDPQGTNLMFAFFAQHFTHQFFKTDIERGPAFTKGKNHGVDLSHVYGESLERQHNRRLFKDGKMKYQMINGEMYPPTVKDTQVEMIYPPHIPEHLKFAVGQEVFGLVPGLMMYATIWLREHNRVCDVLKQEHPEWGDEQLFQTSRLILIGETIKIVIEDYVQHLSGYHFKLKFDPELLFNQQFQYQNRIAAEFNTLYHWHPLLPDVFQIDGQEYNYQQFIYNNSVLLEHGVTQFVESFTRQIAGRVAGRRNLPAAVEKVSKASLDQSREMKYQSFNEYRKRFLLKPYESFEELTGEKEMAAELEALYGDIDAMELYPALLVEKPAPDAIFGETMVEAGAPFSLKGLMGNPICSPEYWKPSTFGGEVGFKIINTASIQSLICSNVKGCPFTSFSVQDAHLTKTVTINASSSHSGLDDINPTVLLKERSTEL
Experimental: In order to prevent this in the in vitro experiment used for testing COX inhibition activity of the new molecules, a co-substrate like N,N,N′,N′-tetramethyl-p-phenylenediamine (TMPD) is included, as it undergoes co-oxidation by PGG2. The oxidized TMPD has a maximum absorbance at 590 nm. […] To ensure maximum enzyme activity, heme is added to the reaction mixture during the in vitro assay for ovine COX-2 inhibition and COX-1 inhibition [63].
The in vitro COX-2 inhibitory activity was assessed using arachidonic acid (AA) as a substrate and N,N,N′,N′-tetramethyl-p-phenylenediamine (TMPD) as a co-substrate in a Tris-HCl buffer (pH 8.5), following the reported method [89]. To the test tube, 10 µL of the compound dissolved in DMSO was added to a mixture containing 730 µL of Tris-HCl buffer (pH 8.5), 50 µL of heme, 10 µL of COX-2 enzyme, and 100 µL of TMPD. The absorbance was measured at 590 nm. […] A blank determination was conducted as a negative control.

T2 sequence (P02769 25-607): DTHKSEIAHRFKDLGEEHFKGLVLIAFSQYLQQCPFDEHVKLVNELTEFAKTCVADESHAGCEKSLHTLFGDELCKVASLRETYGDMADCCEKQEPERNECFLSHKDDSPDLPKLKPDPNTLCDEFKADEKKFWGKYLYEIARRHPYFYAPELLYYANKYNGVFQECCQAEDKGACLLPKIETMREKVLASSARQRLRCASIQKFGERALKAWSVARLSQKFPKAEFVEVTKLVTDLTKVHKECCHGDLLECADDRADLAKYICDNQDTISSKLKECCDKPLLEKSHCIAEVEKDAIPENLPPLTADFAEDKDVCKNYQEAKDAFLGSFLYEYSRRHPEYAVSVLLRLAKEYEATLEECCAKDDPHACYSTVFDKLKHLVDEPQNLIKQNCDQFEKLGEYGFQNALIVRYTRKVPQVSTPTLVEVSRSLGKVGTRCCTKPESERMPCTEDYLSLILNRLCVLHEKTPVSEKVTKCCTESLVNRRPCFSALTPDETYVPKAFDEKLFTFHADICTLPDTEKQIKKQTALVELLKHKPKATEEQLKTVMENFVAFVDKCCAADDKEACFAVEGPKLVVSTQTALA

SMILES | AAPH Inh. at 100 μΜ [1] | IC50 [2] | Albumin (inhibition of albumin denaturation) (bovine serum albumin) | EC50 (HeLa cells) | EC50 (MCF-7 cells) | IC50 (ovine COX-2)
C/C(=N\O)c1ccc(NC(=O)COC(=O)/C=C/c2cccs2)cc1 [Compound 6c, 2-((4-((E)-1-(Hydroxyimino)ethyl)phenyl)amino)-2-oxoethyl (E)-3-(thiophen-2-yl)acrylate] | 4% | 10 µM | no | 83 µM | > 100 µM | 35 µM
C/C(=N\O)c1ccc(NC(=O)COC(=O)/C(=C/c2cccs2)c2ccccc2)cc1 [Compound 6i, 2-((4-((E)-1-(Hydroxyimino)ethyl)phenyl)amino)-2-oxoethyl (E)-2-phenyl-3-(thiophen-2-yl)acrylate] | 28% | 60 µM | no | 36.7 µM | 38.3 µM | 80 µM
O=C(/C=C/c1cc2ccccc2s1)OCc1c(-c2ccccc2)no[n+]1[O-] [Compound 9e, (E)-3-(((3-(Benzo[b]thiophen-2-yl)acryloyl)oxy)methyl)-4-phenyl-1,2,5-oxadiazole 2-oxide] | 67% | 65 µM | no | 55.5 µM | 58.5 µM | 8.25 µM
